Assays:
[1] = Pharmacokinetics after administration of the subject combination; conditions: for AUC0-12 relative to that of bupropion / Cmax relative to peak level of bupropion: metabolite vs bupropion, after the subject combination
[2] = Food effect on pharmacokinetics of the subject combination; conditions: subject combination administered with food
[3] = Effect of CYP2D6 poor metabolizer status on pharmacokinetics of the tablet (Group 3); conditions: compared to patients who are not CYP2D6 poor metabolizers
plasma protein = experiment: Plasma protein binding; assay type: in vitro ADME; conditions: metabolite vs bupropion

**Q.** For CC(NC(C)(C)C)C(=O)c1cccc(Cl)c1 (racemic) [bupropion], which mean elimination half-life ([1]; human, plasma, oral) is on record?
**A.** The mean elimination half-life was 15 h.

**Q.** For COc1ccc2c(c1)[C@]13CCCC[C@@H]1[C@H](C2)N(C)CC3 [dextromethorphan], which “AUC0-12 decrease with food” value [2] is on record?
**A.** The value was 14%.

**Q.** What about the “increase of mean elimination half-life” value ([1]; 8 days of subject combination in extensive metabolizers, compared to dextromethorphan given without bupropion) of the same molecule?
**A.** Its value is “approximately 3 fold”.

**Q.** What about the “pharmacokinetics at steady state (linearity)” value ([1]; co-administered with bupropion) of the same molecule?
**A.** Its value is “nonlinear pharmacokinetics”.

**Q.** And the “changes in AUC and Cmax at steady state with dose” value ([1]; varying doses of bupropion (75 to 150 mg), co-administered with bupropion)?
**A.** Its value is “less than dose-proportional changes”.

**Q.** What about the “changes in AUC and Cmax at steady state with dose” value ([1]; varying doses of dextromethorphan (30 to 60 mg), co-administered with bupropion) of the same molecule?
**A.** Its value is “greater than dose-proportional changes”.

**Q.** And the “plasma concentrations in CYP2D6 poor metabolizers” value [3]?
**A.** Its value is “increases plasma concentrations”.

**Q.** With CC(NC(C)(C)C)C(O)c1cccc(Cl)c1 (centres unmarked) [erythrohydroxybupropion] as the molecule, how does the “AUC0-12 relative to that of bupropion” value [1] read?
**A.** The value was “about 1.2 times”.

**Q.** What about the “Cmax relative to peak level of bupropion” value [1] of the same molecule?
**A.** The value was “approximately equal to”.

**Q.** What does the source list for C[C@H]1NC(C)(C)CO[C@]1(O)c1cccc(Cl)c1 [hydroxybupropion]?
**A.** AUC0-12 relative to that of bupropion [1]: about 19 times; Cmax relative to peak level of bupropion [1]: approximately 14 times

**Q.** Which “extent of protein binding compared with bupropion” value (plasma protein) does the source give for C[C@H](NC(C)(C)C)[C@@H](O)c1cccc(Cl)c1 [threohydroxybupropion] here?
**A.** The value was “about half that seen with bupropion”.

**Q.** And the “AUC0-12 relative to that of bupropion” value [1]?
**A.** The value was “about 7 times”.

**Q.** And the “Cmax relative to peak level of bupropion” value [1]?
**A.** The value was “about 5 times”.

— patent US12194036B2 (priority 2022, dated 2025)
